According to patent US9302999B2, “Substituted triazoles as herbicides” (E. I. DU PONT DE NEMOURS AND COMPANY, priority 2012, dated 2016):

How the values were obtained:
Assay type in all cases: in vivo
[1] = test system: sandbur (southern sandbur, Cenchrus echinatus); assay: Test F pre-/postemergence: sandbur
Text: (§1) Seeds of plant species selected from corn (Zea mays), soybean (Glycine max), velvetleaf (Abutilon theophrasti), lambsquarters (Chenopodium album), poinsettia, wild (wild poinsettia, Euphorbia heterophylla), pigweed, palmer (palmer pigweed, Amaranthus palmeri), waterhemp (common waterhemp, Amaranthus rudis), surinam grass (Brachiaria decumbens), crabgrass, Brazil (Brazilian crabgrass, Digitaria horizontalis), panicum, fall (fall panicum Panicum dichotomiflorum), crabgrass, large (large crabgrass, Digitaria sanguinalis), foxtail, giant (giant foxtail, Setaria faberii), foxtail, green (green foxtail Setaria viridis), goosegrass (Eleusine indica), ragweed (common ragweed, Ambrosia elatior), barnyardgrass (Echinochloa crus-galli), sandbur (southern sandbur, Cenchrus echinatus), arrowleaf sida (Sida rhombifolia), ryegrass, Italian (Italian ryegrass, Lolium multiflorum), dayflower, VA (Virginia (VA) dayflower, Commelina virginica), field bindweed (Convolvulus arvensis), cocklebur (common cocklebur, Xanthium strumarium), morningglory (Ipomoea coccinea), nightshade (eastern black nightshade, Solanum ptycanthum), kochia (Kochia scoparia), nutsedge, yellow (yellow nutsedge, Cyperus esculentus), johnsongrass (Sorghum halepense), smartweed (ladysthumb smartweed, Polygonum persicaria), and beggarticks (hairy beggarticks, Bidens pilosa), were planted into a silt loam soil and treated preemergence with test chemicals formulated in a non-phytotoxic solvent mixture which included a surfactant. At the same time, plants selected from these crop and weed species and also pigweed (Amaranthus retroflexus), waterhemp_RES1 (ALS/Triazine resistant common waterhemp, Amaranthus rudis) and waterhemp_RES2 (ALS/HPPD resistant common waterhemp, Amaranthus rudis) were planted in pots containing a planting medium comprising spaghnum peat moss, vermiculite, wetting agent and starter nutrients treated with postemergence applications of some of the test chemicals formulated in the same manner. Plants ranged in height from 2 to 18 cm for postemergence treatments (1- to 4-leaf stage).
(§2) Treated plants and controls were maintained in a greenhouse for 14 to 21 days, after which time all species were compared to controls and visually evaluated. Plant response ratings, summarized in Table E, are based on a scale of 0 to 100 where 0 is no effect and 100 is complete control. A dash (-) response means no test result.

[2] = test system: dayflower, VA (Virginia (VA) dayflower, Commelina virginica); assay: Test F pre-/postemergence: dayflower, VA
In short: (§3)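 Visual response scores, 0 meaning no effect and 100 complete control, were assigned against untreated controls 14 to 21 days after treatment. Test chemicals in a surfactant-containing non-phytotoxic solvent were applied preemergence to seeded silt loam soil or postemergence to 2–18 cm plants in peat-based medium.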

[3] = test system: morningglory (Ipomoea coccinea); assay: Test F pre-/postemergence: morningglory; conditions: Preemergence
Text: as §1, §2

[4] = test system: nutsedge, yellow (yellow nutsedge, Cyperus esculentus); assay: Test F pre-/postemergence: nutsedge, yellow; conditions: Preemergence
In short: as §3

[5] = test system: pigweed (Amaranthus retroflexus); assay: Test D pre-/postemergence: pigweed
In short: (§4)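 Visual control ratings (0–100) after 14–21 days, controlled environment. Preemergence on silt loam; postemergence on 2–18 cm plants.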

[6] = test system: chamomile (scentless chamomile, Matricaria inodora); assay: Test D pre-/postemergence: chamomile
In short: as §4

[7] = Postemergence, 250 g ai/ha, scale 0 to 100
[8] = Postemergence, 31 g ai/ha, scale 0 to 100
[9] = Postemergence, 125 g ai/ha, scale 0 to 100
[10] = Preemergence, 31 g ai/ha, scale 0 to 100, 0 no effect, 100 complete control
[11] = Preemergence, 125 g ai/ha, scale 0 to 100
[12] = Preemergence, 250 g ai/ha, scale 0 to 100
[13] = 31 g ai/ha, scale 0 to 100, 0 no effect, 100 complete control
[14] = Postemergence, 31 g ai/ha, scale 0 to 100 (0 no effect, 100 complete control)
[15] = Postemergence, 62 g ai/ha, scale 0 to 100 (0 no effect, 100 complete control)
[16] = Postemergence, 125 g ai/ha, scale 0 to 100, 0 no effect, 100 complete control
[17] = Postemergence, 16 g ai/ha, scale 0 to 100
[18] = Preemergence, 16 g ai/ha, scale 0 to 100, 0 no effect, 100 complete control
[19] = Preemergence, 62 g ai/ha, scale 0 to 100
[20] = Postemergence, 8 g ai/ha, scale 0 to 100
[21] = Postemergence, 62 g ai/ha, scale 0 to 100
[22] = Preemergence, 8 g ai/ha, scale 0 to 100, 0 no effect, 100 complete control
[23] = 8 g ai/ha, scale 0 to 100, 0 no effect, 100 complete control
[24] = 16 g ai/ha, scale 0 to 100, 0 no effect, 100 complete control

CCCc1nn(-c2ccc(F)c(F)c2)nc1Oc1ccnc(C(F)(F)F)c1 [Compound 172]
Plant response rating, Sandbur [1, 7]: 40 | Plant response rating, Sandbur [1, 8]: 20 | Plant response rating, Sandbur [1, 9]: 30 | Plant response rating, Sandbur [1, 10]: 5 | Plant response rating, Sandbur [1, 11]: 70 | Plant response rating, Sandbur [1, 12]: 100 | Plant response rating, Dayflower, VA [2, 7]: 50 | Plant response rating, Dayflower, VA [2, 8]: 20 | Plant response rating, Dayflower, VA [2, 9]: 30 | Plant response rating, Dayflower, VA [2, 10]: 40 | Plant response rating, Dayflower, VA [2, 11]: 70 | Plant response rating, Dayflower, VA [2, 12]: 90 | Plant response rating, Morningglory [3, 13]: 0 | Plant response rating, Morningglory ([3]; 125 g ai/ha, scale 0 to 100): 5 | Plant response rating, Morningglory ([3]; 250 g ai/ha, scale 0 to 100): 5 | Plant response rating, Nutsedge, Yellow [4, 13]: 25 | Plant response rating, Nutsedge, Yellow ([4]; 125 g ai/ha, scale 0 to 100): 25 | Plant response rating, Nutsedge, Yellow ([4]; 250 g ai/ha, scale 0 to 100): 25

CCOc1nn(-c2ccc(F)cc2)nc1Cc1ccnc(C(F)(F)F)c1 [Compound 196, 4-[[5-ethoxy-2-(4-fluorophenyl)-2H-1,2,3-triazol-4-yl]methyl]-2-(trifluoromethyl)pyridine]
Plant response rating: Pigweed [5, 14]: 95 | Plant response rating: Pigweed [5, 15]: 95 | Plant response rating: Pigweed [5, 16]: 100 | Plant response rating, Pigweed [5, 17]: 85 | Plant response rating, Pigweed [5, 18]: 65 | Plant response rating, Pigweed [5, 10]: 100 | Plant response rating, Pigweed [5, 19]: 100 | Plant response rating, Pigweed [5, 11]: 100 | Plant response rating: Chamomile [6, 14]: 70 | Plant response rating: Chamomile [6, 15]: 75 | Plant response rating: Chamomile [6, 16]: 85 | Plant response rating, Chamomile [6, 17]: 60 | Plant response rating, Chamomile [6, 18]: 55 | Plant response rating, Chamomile [6, 10]: 85 | Plant response rating, Chamomile [6, 19]: 100 | Plant response rating, Chamomile [6, 11]: 100 | Plant response rating, Sandbur [1, 20]: 10 | Plant response rating, Sandbur [1, 17]: 20 | Plant response rating, Sandbur [1, 8]: 20 | Plant response rating, Sandbur [1, 21]: 30 | Plant response rating, Sandbur [1, 9]: 50 | Plant response rating, Sandbur [1, 22]: 5 | Plant response rating, Sandbur [1, 18]: 5 | Plant response rating, Sandbur [1, 10]: 5 | Plant response rating, Sandbur [1, 11]: 98 | Plant response rating, Dayflower, VA [2, 20]: 30 | Plant response rating, Dayflower, VA [2, 17]: 50 | Plant response rating, Dayflower, VA [2, 8]: 60 | Plant response rating, Dayflower, VA [2, 21]: 60 | Plant response rating, Dayflower, VA [2, 9]: 70 | Plant response rating, Dayflower, VA [2, 22]: 5 | Plant response rating, Dayflower, VA [2, 18]: 35 | Plant response rating, Dayflower, VA [2, 10]: 35 | Plant response rating, Dayflower, VA [2, 19]: 50 | Plant response rating, Dayflower, VA [2, 11]: 65 | Plant response rating, Morningglory [3, 23]: 0 | Plant response rating, Morningglory [3, 24]: 30 | Plant response rating, Morningglory [3, 13]: 30 | Plant response rating, Morningglory ([3]; 125 g ai/ha, scale 0 to 100): 70 | Plant response rating, Nutsedge, Yellow [4, 23]: 0 | Plant response rating, Nutsedge, Yellow [4, 24]: 0 | Plant response rating, Nutsedge, Yellow [4, 13]: 0 | Plant response rating, Nutsedge, Yellow ([4]; 125 g ai/ha, scale 0 to 100): 75
